*1 amine or outer side, *2 acyl side, *3 side chain or, on linkers, in order; H or OH if unused. Where a SMILES comes first, the peptide text is derived from it. Side-chain parts run from the residue outwards. [ ]: non-standard residue; d: D form. The star is where a group is joined. Ethylenediamine = C(CN[*:2])N[*:1]; Hyp = O=C(O)[CH]1C[CH](O)CN1; Phg = N[CH](C(=O)O)c1ccccc1; CO = O=C([*:1])[*:2]; Bn = c1ccc(C*)cc1
Test system: Pancreas
Assay: Microarray gene expression profiling (HG-U95A), pancreas
Assay type: in vivo, cynomolgus monkeys
Description: Origin of tissue and processing. Male and female cynomolgus monkeys received subcutaneously pasireotide (100 μg/animal/day) or the vehicle for 14 days. On day 15, all animals were sacrificed and tissues for RNA extraction were immediately snap-frozen and kept at −80° C. until processing.
RNA expression profiling was conducted by means of the HG-U95A gene expression probe array (Affymetrix; Santa Clara, Calif. USA), containing more than 12,600 probe sets interrogating primarily full-length human genes and also some control probe sets. The experiment was conducted according to the recommendations of the manufacturer. Briefly, total RNA was obtained by acid guanidinium thiocyanate-phenol-chloroform extraction (Trizol®, Invitrogen Life Technologies, San Diego, Calif. USA) from each frozen tissue section. The total RNA was then purified on an affinity resin (Rneasy®, Qiagen) and quantified. Double stranded cDNA was synthesized with a starting amount of approximately 5 μg full-length total RNA using the Superscript® Choice System (Invitrogen Life Technologies, Carlsbad, Calif. USA) in the presence of a T7-(dT)24 DNA oligonucleotide primer. Following synthesis, the cDNA was purified by phenol/chloroform/isoamyl alcohol extraction and ethanol precipitation. The purified cDNA was then transcribed in vitro using the BioArray® High Yield RNA Transcript Labeling Kit (ENZO, Farmingdale, N.Y. USA) in the presence of biotinylated ribonucleotides form biotin labelled cRNA. The labelled cRNA was then purified on an affinity resin (Rneasy®, Qiagen), quantified and fragmented. An amount of approximately 10 μg labelled cRNA was hybridized for 16 hours at 45° C. to an expression probe array. The array was then washed and stained twice with streptavidin-phycoerythrin (Molecular Probes,) using the GeneChip® Fluidics Workstation 400 (Affymetrix, Santa Clara, Calif. USA). The array was then scanned twice using a confocal laser scanner (GeneArray® Scanner, Agilent, Palo Alto, Calif. USA) resulting in one scanned image. This resulting “.dat-file” was processed using the MAS4 program (Affymetrix) into a “.cel-file”. The “.cel file” was captured and loaded into the Affymetrix GeneChip® Laboratory Information Management System (LIMS). The LIMS database is connected to a UNIX Sun Solaris server through a network filing system that allows for the average intensities for all probes cells (CEL file) to be downloaded into an Oracle database (NPGN). Raw data was converted to expression levels using a “target intensity” of 150. The data were evaluated for quality control and loaded in the GeneSpring® software 4.2.4 (Silicon Genetics, Calif. USA) for analysis.
On the human Affymetrix HGU95Av2 chip, probe sets for individual genes contain 20 oligonucleotide pairs, each composed of a “perfect match” 25-mer and a “mismatch” 25-mer differing from the “perfect” match oligonucleotide at a single base. After probe labelling, hybridization, and laser scanning, the expression level was estimated by averaging the differences in signal intensity measured by oligonucleotide pairs of a given probe (AvgDiff value). The fold changes and directions were calculated for selected genes, from the differences of the AvgDiff values between controls and treated.
To identify genes that were impacted by pasireotide, the dataset was initially filtered to exclude in a first wave of analysis, genes whose values were systematically in the lower expression ranges where the experimental noise is high (at least 80 in a number of experiments corresponding to the smallest number of replicas of any experimental point). In a second round of selection a threshold p-value of 0.05 (based on a t-test) identified differences between treated and control based on a two component error model (Global Error Model) and, whenever possible, with a stepdown correction for multi-hypothesis testing (Benjamini and Hochberg false discovery rate). […]

[1] = ↑ vs control, 100 μg/animal/day s.c., 14 days
[2] = ↓ vs control, 100 μg/animal/day s.c., 14 days

NCCCCC1NC(=O)C(Cc2c[nH]c3ccccc23)NC(=O)C(c2ccccc2)NC(=O)C2CC(OC(=O)NCCN)CN2C(=O)C(Cc2ccccc2)NC(=O)C(Cc2ccc(OCc3ccccc3)cc2)NC1=O (stereo not drawn) [Pasireotide, cyclo[4-(NH2—C2H4—NH—CO—O)Pro-Phg-DTrp-Lys-Tyr(4-Bzl)-Phe]] (cyclo(F[Hyp]([CO-Ethylenediamine])[Phg]WKY(Bn)); configuration not given here)
IGF-1 expression level, AvgDiff (range) (0.1 mg/animal/14day): 89 (20 to 298)
SSTR2 expression level, AvgDiff (range) (0.1 mg/animal/14day): 156 (120 to 210)
Cdki 1C transcript fold change [1]: Cdki 1C ↑ x2
Chymotrypsin-like transcript fold change [1]: ↑ x3.5
Cyclin D1 transcript fold change [1]: Cyclin D1 ↑ x2
GLUR precursor, flip isoform transcript fold change [1]: flip isoform ↑ x3
IFN regulatory factor 3 transcript fold change [1]: factor 3 ↑ x5
IGF-1 transcript fold change [1]: IGF-1 ↑ x4.5
IP-1-phosphatase transcript fold change [1]: ↑ x2.5
Integrin α 2b precursor transcript fold change [1]: precursor ↑ x1.5
Na+ channel, voltage-gated, type 1, β polypeptide transcript fold change [1]: ↑ x2
PDGFR α transcript fold change [1]: PDGFR α ↑ x2.5
PDGFR, α polypeptide transcript fold change [1]: ↑ x1.5
PI-4-kinase, catalytic, α polypeptide transcript fold change [1]: α polypeptide ↑ x1.5
PL A2, group IVC (cytosolic, calcium-independent) transcript fold change [1]: independent) ↑ x1.5
Prostacyclin synthase transcript fold change [1]: synthase ↑ x2
THR interactor 10 transcript fold change [1]: ↑ x2.5
Thrombospondin 2 transcript fold change [1]: ↑ x3.5
BCL2/adenovirus E1B 19 kD-intracting protein 1, isoform BNIP1-a transcript fold change [2]: BNIP1-a ↓ x1.5
CRHR 1 transcript fold change [2]: CRHR 1 ↓ x2
Ca++ channel, voltage dependent, α 1F subunit transcript fold change [2]: ↓ x4.5
Cyclin T2 transcript fold change [2]: Cyclin T2 ↓ x2
G-CSF protein transcript fold change [2]: ↓ x2
Gastrin-releasing peptide receptor transcript fold change [2]: ↓ x5
IL 1 receptor antagonist transcript fold change [2]: antagonist↓ x2
K+ voltage-gated channel, KQT-like subfamily, member3 transcript fold change [2]: ↓ x2.5
Neuro-blastoma apoptosis-related RNA binding protein transcript fold change [2]: protein ↓ x3
Phosphotyrosine independent ligand p62B for the Lck SH2 domain B-cell isoform transcript fold change [2]: isoform ↓ x2
Smad 3 transcript fold change [2]: Smad 3 ↓ x1.5
THR binding protein transcript fold change [2]: protein ↓ x2

From patent publication US20070275382A1, “Biomarkers for the Efficacy of Somatostatin Analogue Treatment” (priority 2003, published 2007)
